According to US10988456B2, “O-aminoheteroaryl alkynyl-containing compound, preparation method therefor, and use thereof” (SHANGHAI INSTITUTE OF MATERIA MEDICA, CHINESE ACADEMY OF …, priority 2017, dated 2021):

Assays:
Experiment in all cases: Inhibition of receptor tyrosine kinase activity at molecular level (ELISA, Poly(Glu,Tyr)4:1 substrate phosphorylation)
Type in all cases: biochemical
KDR = KDR (Homo sapiens, UniProt P35968); details: for 10 nM inhibition ratio KDR: 10 nM compound, average of two independent experiments
Procedure: (§1) Enzyme reaction substrate Poly(Glu, Tyr)4:1 was diluted with potassium-free PBS (10 mM sodium phosphate buffer, 150 mM NaCl, pH 7.2-7.4) to 20 μg/mL. […] The reaction was conducted under 37° C. for 12-16 hours. After the liquid was removed from the wells, the plate was washed three times with 200 μL/well of T-PBS (PBS containing 0.1% Tween-20), each for 5 minutes. The enzyme plate was dried in 37° C. dryer for 1-2 hours.
(§2) 50 μL ATP solution diluted with buffer (50 mM HEPES pH 7.4, 50 mM MgCl2, 0.5 mM MnCl2, 0.2 mM Na3VO4, 1 mM DTT) to a final concentration of 5 μM was added into each well. The compound was diluted with DMSO to a suitable concentration (1 μL/well) or the well contained the corresponding concentration of DMSO (negative control well) Then various kinase recombinant proteins diluted with 49 μL of reaction buffer was added to initiate the reaction. Each experiment required duplicate enzyme-free control well. The reaction was carried out for 1 hour on a 37° C. Shaker (100 rpm). The plate was washed three times with T-PBS. A dilution of the primary antibody PY99 was added (100 μL/well), and the reaction was conducted in a shaker at 37° C. for 0.5 hr. The plate was washed three times with T-PBS. A dilution of the horseradish peroxidase-labeled goat anti-mouse IgG secondary antibody was added (100 μL/well), and the reaction was conducted in a shaker at 37° C. for 0.5 hour. Plate was washed with T-PBS for three times. 2 mg/mL OPD coloration solution (diluted with 0.1 M citric acid-sodium citrate buffer containing 0.03% H2O2 (pH=5.4)) was added (100 μL/well), reacted for 1-10 minutes at 25° C. in dark. The reaction was quenched with 2M H2SO4 (50 μL/well), and read at 490 nm using a tunable microplate reader SPECTRA MAX 190.
(§3) The inhibition ratio of the sample was determined by the following formula: […]
(§4) The IC50 values were obtained via four-parameter regression analysis using the software supplied with the microplate reader.

RET = RET (Homo sapiens, UniProt P07949); details: for 10 nM inhibition ratio RET: 10 nM compound, average of two independent experiments
Procedure: as §1, §2, §3, §4

FGFR1 = FGFR1 (Homo sapiens, UniProt P11362); details: for 10 nM inhibition ratio FGFR1: 10 nM compound, average of two independent experiments; for inhibition ratio FGFR1 (100 nM): 100 nM compound
Procedure: as §1, §2, §3, §4

Sequence of RET (P07949 29-1114): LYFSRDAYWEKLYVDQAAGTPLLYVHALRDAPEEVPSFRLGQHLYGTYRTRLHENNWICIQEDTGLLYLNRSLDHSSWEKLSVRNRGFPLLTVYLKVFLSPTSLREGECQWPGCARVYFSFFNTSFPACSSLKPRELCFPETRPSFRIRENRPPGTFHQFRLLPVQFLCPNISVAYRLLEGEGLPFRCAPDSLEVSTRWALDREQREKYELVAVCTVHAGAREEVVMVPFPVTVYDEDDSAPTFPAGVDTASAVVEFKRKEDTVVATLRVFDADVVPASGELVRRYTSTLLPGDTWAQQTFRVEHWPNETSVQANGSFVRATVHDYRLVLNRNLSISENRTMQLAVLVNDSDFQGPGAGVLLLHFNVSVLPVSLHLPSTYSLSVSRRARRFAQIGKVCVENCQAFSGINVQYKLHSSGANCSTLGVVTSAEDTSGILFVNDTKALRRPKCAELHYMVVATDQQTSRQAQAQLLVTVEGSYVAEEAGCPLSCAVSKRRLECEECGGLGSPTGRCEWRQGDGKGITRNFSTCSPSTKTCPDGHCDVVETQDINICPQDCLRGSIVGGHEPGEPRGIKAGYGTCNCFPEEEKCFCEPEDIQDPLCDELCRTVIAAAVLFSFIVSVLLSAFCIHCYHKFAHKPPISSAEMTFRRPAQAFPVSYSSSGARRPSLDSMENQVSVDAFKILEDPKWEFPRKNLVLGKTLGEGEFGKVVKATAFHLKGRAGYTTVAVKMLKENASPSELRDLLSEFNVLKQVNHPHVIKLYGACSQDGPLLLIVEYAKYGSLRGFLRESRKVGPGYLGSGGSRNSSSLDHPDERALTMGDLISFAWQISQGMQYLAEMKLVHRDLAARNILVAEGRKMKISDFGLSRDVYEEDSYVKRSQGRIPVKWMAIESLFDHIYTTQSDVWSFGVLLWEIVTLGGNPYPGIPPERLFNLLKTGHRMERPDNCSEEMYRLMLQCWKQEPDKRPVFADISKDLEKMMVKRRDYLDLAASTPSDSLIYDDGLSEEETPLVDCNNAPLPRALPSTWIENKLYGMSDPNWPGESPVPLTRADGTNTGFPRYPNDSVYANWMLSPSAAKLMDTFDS
Sequence of KDR (P35968 20-1356): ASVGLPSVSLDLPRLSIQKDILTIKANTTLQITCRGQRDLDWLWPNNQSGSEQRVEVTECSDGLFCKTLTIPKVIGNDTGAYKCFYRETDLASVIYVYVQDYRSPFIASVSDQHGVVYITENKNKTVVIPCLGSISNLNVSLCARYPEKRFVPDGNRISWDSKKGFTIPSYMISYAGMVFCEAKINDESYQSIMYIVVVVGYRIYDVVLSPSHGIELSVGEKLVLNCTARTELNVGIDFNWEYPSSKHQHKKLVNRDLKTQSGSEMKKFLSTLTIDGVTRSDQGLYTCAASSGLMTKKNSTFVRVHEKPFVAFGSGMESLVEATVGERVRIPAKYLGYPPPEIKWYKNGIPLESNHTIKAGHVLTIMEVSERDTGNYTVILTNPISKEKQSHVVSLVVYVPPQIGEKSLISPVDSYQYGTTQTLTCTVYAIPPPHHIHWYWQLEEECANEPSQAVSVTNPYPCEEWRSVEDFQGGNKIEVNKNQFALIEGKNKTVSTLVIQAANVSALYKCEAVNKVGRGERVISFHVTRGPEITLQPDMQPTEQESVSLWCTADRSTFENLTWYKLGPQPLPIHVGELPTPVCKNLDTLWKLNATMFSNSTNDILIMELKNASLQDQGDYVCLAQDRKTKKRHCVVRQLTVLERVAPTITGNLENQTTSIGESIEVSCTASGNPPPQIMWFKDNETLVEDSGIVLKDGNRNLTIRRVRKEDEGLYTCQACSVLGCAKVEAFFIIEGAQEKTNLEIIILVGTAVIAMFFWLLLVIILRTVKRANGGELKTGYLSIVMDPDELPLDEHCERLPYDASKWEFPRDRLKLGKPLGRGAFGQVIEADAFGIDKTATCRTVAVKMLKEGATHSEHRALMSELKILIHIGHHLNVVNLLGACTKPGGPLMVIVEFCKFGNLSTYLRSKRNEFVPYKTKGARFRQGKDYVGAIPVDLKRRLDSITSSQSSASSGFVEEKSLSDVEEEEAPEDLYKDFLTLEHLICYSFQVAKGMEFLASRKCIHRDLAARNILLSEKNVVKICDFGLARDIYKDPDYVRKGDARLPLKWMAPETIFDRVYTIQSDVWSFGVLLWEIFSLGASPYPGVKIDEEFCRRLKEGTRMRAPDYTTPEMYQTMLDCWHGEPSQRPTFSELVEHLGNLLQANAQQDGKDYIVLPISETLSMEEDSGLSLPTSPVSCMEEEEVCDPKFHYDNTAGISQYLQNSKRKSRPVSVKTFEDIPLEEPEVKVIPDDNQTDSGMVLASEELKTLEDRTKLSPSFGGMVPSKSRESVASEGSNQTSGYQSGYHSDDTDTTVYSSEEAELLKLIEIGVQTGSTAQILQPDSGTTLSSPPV
Sequence of FGFR1 (P11362 22-822): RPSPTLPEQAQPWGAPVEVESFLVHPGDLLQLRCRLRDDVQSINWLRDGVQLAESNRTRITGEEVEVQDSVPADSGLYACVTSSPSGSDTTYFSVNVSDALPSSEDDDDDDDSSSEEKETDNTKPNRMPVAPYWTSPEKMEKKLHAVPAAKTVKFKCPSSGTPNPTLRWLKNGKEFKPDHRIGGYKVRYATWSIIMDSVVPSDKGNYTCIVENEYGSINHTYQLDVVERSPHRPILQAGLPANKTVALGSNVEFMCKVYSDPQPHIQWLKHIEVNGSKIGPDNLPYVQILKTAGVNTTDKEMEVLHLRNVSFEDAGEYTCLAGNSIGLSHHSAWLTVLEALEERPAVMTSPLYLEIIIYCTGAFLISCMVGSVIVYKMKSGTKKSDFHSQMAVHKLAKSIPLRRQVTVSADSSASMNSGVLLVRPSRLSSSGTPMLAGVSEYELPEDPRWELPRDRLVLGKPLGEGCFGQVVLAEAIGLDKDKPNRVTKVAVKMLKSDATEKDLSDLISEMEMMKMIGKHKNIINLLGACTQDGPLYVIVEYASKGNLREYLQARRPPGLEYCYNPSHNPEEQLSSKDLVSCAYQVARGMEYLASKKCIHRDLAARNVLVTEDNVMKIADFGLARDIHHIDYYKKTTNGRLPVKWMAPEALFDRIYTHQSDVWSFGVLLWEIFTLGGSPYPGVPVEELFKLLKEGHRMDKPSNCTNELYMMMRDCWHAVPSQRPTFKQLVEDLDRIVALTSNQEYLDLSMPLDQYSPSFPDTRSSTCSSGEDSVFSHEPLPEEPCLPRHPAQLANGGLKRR

SMILES	10 nM inhibition ratio KDR (KDR)	10 nM inhibition ratio RET (RET)	10 nM inhibition ratio FGFR1 (FGFR1)	inhibition ratio FGFR1 (100 nM) (FGFR1)	inhibition ratio KDR (100 nM) (KDR; 100 nM compound)	inhibition ratio RET (100 nM) (RET; 100 nM compound)
CN1CCN(Cc2ccc(NC(=O)c3ccc(Cl)c(C#Cc4cc(OCCO)cnc4N)c3)cc2C(F)(F)F)CC1 [Example 26]	24.3	79.4	77.2	–	–	–
COCCOc1cnc(N)c(C#Cc2cc(C(=O)Nc3ccc(CN4CCN(C)CC4)c(C(F)(F)F)c3)ccc2Cl)c1 [Example 27]	34.1	69.5	78.2	–	–	–
CNCCOc1cnc(N)c(C#Cc2cc(C(=O)Nc3ccc(CN4CCN(C)CC4)c(C(F)(F)F)c3)ccc2Cl)c1 [Example 28]	28.7	79.3	68.5	–	–	–
CN(C)CCOc1cnc(N)c(C#Cc2cc(C(=O)Nc3ccc(CN4CCN(C)CC4)c(C(F)(F)F)c3)ccc2Cl)c1 [Example 29]	14.3	55.2	44.9	–	–	–
CN1CCN(Cc2ccc(NC(=O)c3ccc(Cl)c(C#Cc4cc(CO)cnc4N)c3)cc2C(F)(F)F)CC1 [Example 30]	5.8	77.8	55.2	–	–	–
COCc1cnc(N)c(C#Cc2cc(C(=O)Nc3ccc(CN4CCN(C)CC4)c(C(F)(F)F)c3)ccc2Cl)c1 [Example 31]	35.1	67.8	59.3	–	–	–
CN1CCN(Cc2ccc(NC(=O)c3ccc(Cl)c(C#Cc4cc(COC(F)(F)F)cnc4N)c3)cc2C(F)(F)F)CC1 [Example 32]	37.2	70.8	66.3	–	–	–
CNCc1cnc(N)c(C#Cc2cc(C(=O)Nc3ccc(CN4CCN(C)CC4)c(C(F)(F)F)c3)ccc2Cl)c1 [Example 33]	35.1	77.8	49.8	–	–	–
CN(C)Cc1cnc(N)c(C#Cc2cc(C(=O)Nc3ccc(CN4CCN(C)CC4)c(C(F)(F)F)c3)ccc2Cl)c1 [Example 34]	18.0	57.8	44.3	–	–	–
CNc1cnc(N)c(C#Cc2cc(C(=O)Nc3ccc(CN4CCN(C)CC4)c(C(F)(F)F)c3)ccc2Cl)c1 [Example 35]	32.1	44.3	57.9	–	–	–
CN1CCN(Cc2ccc(NC(=O)c3ccc(Cl)c(C#Cc4cc(N(C)C)cnc4N)c3)cc2C(F)(F)F)CC1 [Example 36]	12.1	56.3	49.9	–	–	–
CC(=O)Nc1cnc(N)c(C#Cc2cccc(C(=O)Nc3ccc(CN4CCN(C)CC4)c(C(F)(F)F)c3)c2)c1 [Example 37]	33.2	66.3	48.1	–	–	–
CN1CCN(Cc2ccc(NC(=O)c3cccc(C#Cc4cc(NC(=O)C5CC5)cnc4N)c3)cc2C(F)(F)F)CC1 [Example 38]	44.1	65.3	51.8	–	–	–
C=CC(=O)Nc1cnc(N)c(C#Cc2cc(C(=O)Nc3ccc(CN4CCN(C)CC4)c(C(F)(F)F)c3)ccc2Cl)c1 [Example 39]	36.4	88.0	53.4	–	–	–
CN(C)CC=CC(=O)Nc1cnc(N)c(C#Cc2cc(C(=O)Nc3ccc(CN4CCN(C)CC4)c(C(F)(F)F)c3)ccc2Cl)c1 [Example 40]	36.6	77.3	58.2	–	–	–
CN1CCC(Oc2ccc(NC(=O)c3ccc(Cl)c(C#Cc4cccnc4N)c3)cc2C(F)(F)F)CC1 [Example 41]	35.4	77.3	53.4	–	–	–
CN1CCN(Cc2ccc(NC(=O)c3ccc(Cl)c(C#Cc4nccnc4N)c3)cc2C(F)(F)F)CC1 [Example 46]	43.1	95.1	48.5	–	–	–
CN1CCN(Cc2ccc(NC(=O)c3cccc(C#Cc4nc(F)cnc4N)c3)cc2C(F)(F)F)CC1 [Example 47]	40.8	89.1	55.1	–	–	–
CN1CCN(Cc2ccc(NC(=O)c3cccc(C#Cc4nc(CO)cnc4N)c3)cc2C(F)(F)F)CC1 [Example 48]	34.3	78.0	48.7	–	–	–
CN1CCN(Cc2ccc(NC(=O)c3ccc(Cl)c(C#Cc4c(F)ccnc4N)c3)cc2C(F)(F)F)CC1 [Example 49]	33.2	69.5	77.1	–	–	–
CC(C)(C)OC(=O)N1CCN(Cc2ccc(NC(=O)c3ccc(Cl)c(C#Cc4cccnc4N)c3)cc2C(F)(F)F)CC1 [Example 50]	27.8	55.1	56.3	–	–	–
Nc1ncccc1C#Cc1cc(C(=O)Nc2ccc(CN3CCNCC3)c(C(F)(F)F)c2)ccc1Cl [Example 51]	38.2	79.4	67.9	–	–	–
CN1CCN(Cc2ccc(NC(=O)c3ccc(Cl)c(C#Cc4cccnc4N)c3)cc2C(F)(F)F)CC1.Cl [Example 52]	40.2	89.3	75.2	–	–	–
[2H]C([2H])([2H])N1CCN(Cc2ccc(NC(=O)c3ccc(Cl)c(C#Cc4cccnc4N)c3)cc2C(F)(F)F)CC1 [Example 53]	42.1	87.0	78.3	–	–	–
CNc1cncc(C#Cc2cc(C(=O)Nc3ccc(CN4CCN(C)CC4)c(C(F)(F)F)c3)ccc2C)c1 [Example A34, reference compound]	39.5	16.4	33.2	–	–	–
Cc1ncccc1C#Cc1cc(C(=O)Nc2ccc(CN3CCN(C)CC3)c(C(F)(F)F)c2)ccc1Cl [HuFGFR143, reference compound]	26.4	35.2	–	19.9	–	–
COc1ncccc1C#Cc1cc(C(=O)Nc2ccc(CN3CCN(C)CC3)c(C(F)(F)F)c2)ccc1Cl [HuFGFR148, reference compound]	18.2	21.7	–	22.4	–	–
CN1CCN(Cc2ccc(NC(=O)c3ccc(Cl)c(C#Cc4cccnc4F)c3)cc2C(F)(F)F)CC1 [HuFGFR150, reference compound]	32.3	30.3	35.1	–	–	–
CN1CCN(Cc2ccc(NC(=O)c3ccc(Cl)c(C#Cc4ccc(N)nc4)c3)cc2C(F)(F)F)CC1 [HuFGFR151, reference compound]	–	–	–	21.1	23.9	29.7
